This note sets out measurements from patent US5446035A, “20-methyl-substituted vitamin D derivatives” (Schering Aktiengesellschaft, priority 1991, dated 1995).

For one experiment, the system named is HL-60 cells. Put plainly: induction of HL-60 cell differentiation to macrophages (NBT reduction). The class given is cell-based, human. The conditions noted are these: 96 hours incubation, formazan at 650 nm. On the procedure:
It is known in the literature (Mangelsdorf, D. J. et al., J. Cell. Biol. 98: 391-398 (1984)) that the treatment of human leukemia cells (promyelocyte cell line HL-60, available, e.g., from the ATCC, Rockville, Md.) in vitro with calcitriol induces the differentiation of the cells to macrophages.
HL-60 cells are cultivated in tissue culture medium (RPMI - 10% fetal calf serum) at 37° C. in an atmosphere of 5% CO2 in air.
For substance testing, the cells are centrifuged and 2.8×10^5 cells/ml are suspended in phenol red-free tissue culture medium. The test substances are dissolved in ethanol and diluted with tissue culture medium without phenol red to achieve the desired concentration. The diluted test substances are mixed with the cell suspension in a ratio of 1:10 and 100 μl each of this cell suspension mixed with substance is pipetted in a depression of a 96-hole plate. As a control, a cell suspension is prepared similarly, but only with the solvent. […]
To dissolve the formed intracellular formazan crystals, 100 μl of potassium hydroxide (2 mol/l) and 100 μl of dimethylsulfoxide are pipetted into each depression and ultrasonically irradiated for 1 minute. The concentration of formazan is spectrophotometrically measured at 650 nm.
As a measurement for the differentiation induction of HL 60 cells to macrophages, the concentration of formed formazan is determined. […]

The subject of experiment [1] is human peripheral blood mononuclear cells. The experiment in a line: PHA-stimulated lymphocyte proliferation ([3H]-thymidine incorporation). Format: cell-based. Particulars: PBMC, PHA 5 μg/well, 96 hours after stimulation, read-out: concentration inhibiting lymphocyte proliferation by 50%. On the procedure:
At the time of seeding, cells were treated with phytohemagglutinin (PHA) 5 μg/well. The test compound was added at the same time as PHA in various concentration. Lymphocyte proliferation was determined 96 hours after stimulation by incorporation of [^3 H]-thymidine. For that, [^3 H]-thymidine (0.2 μCi/well) was added for the last 6 hours of culture, then medium and cells were filtrated through a glass fiber filter. Radioactivity of the filters were determined in a β-counter.

In experiment [2] the test system is IL-2 secretion, human peripheral blood mononuclear cells. The experiment in a line: IL-2 secretion by PHA-stimulated lymphocytes (ELISA). The class given is cell-based. Particulars: compared with calcitriol; PHA 20 μg/well, 24 hours. On the procedure:
For determination of IL-2 secretion, human peripheral blood mononuclear cells were prepared as above, seeded at a density of 2×10^6 cells/well×200 μl into 24-well-plates and cultured in RPMI 1640 in the presence of 2% fetal calf serum. At the time of seeding, PHA (20 μg/well) and the test compound was added. 24 hours after stimulation, cell cultures were harvested, medium separated from cells by centrifugation, and IL-2 concentration in the medium determined by an ELISA based on a polyclonal antibody IL-2.

Each structure is given as a SMILES string.

For the molecule `C=C1/C(=C\C=C2/CCC[C@]3(C)[C@@H](C(C)(C)/C=C/C=C/C(C)(C)O)CC[C@@H]23)C[C@@H](O)C[C@@H]1O` [1(S),3(R)-Dihydroxy-20-(5-hydroxy-5-methyl-hexa-1E,3E-dien-1-yl)-20-methyl-9,10-secopregna-5Z,7E,10(19)-triene], the relative activity in inducing differentiation: ED50 test substance/ED50 calcitriol in the experiment with HL-60 cells is around 0.001.

Consider `C=C1/C(=C\C=C2/CCC[C@]3(C)[C@@H]([C@H](C)CCCC(C)(C)O)CC[C@@H]23)C[C@@H](O)C[C@@H]1O` [1,25-dihydroxy-vitamin D3, 1α,25-dihydroxycholecalciferol, reference compound], for which the IC50 in experiment [1] amounted to 0.44 nM.

Take `C=C1/C(=C\C=C2/CCC[C@]3(C)[C@@H](C(C)(C)CC=CC(C)(C)O)CC[C@@H]23)C[C@@H](O)C[C@@H]1O` [ZK 157202, 1α,25-dihydroxy-20-methyl-23,24-dehydrovitamin D3]: the “concentration range at which inhibition of IL-2 secretion starts” value in experiment [2] is given as “about the same as for calcitriol”. For the same molecule, in experiment [1], the IC50 worked out at 0.013 nM.
